Experimental data as given in patent publication US20260034103A1, “COMPOSITIONS AND METHODS FOR IMPROVING MEMORY AND COGNITION” (priority 2022, published 2026).

Experiments:
[1] = system: Sprague Dawley rat hippocampal slices; assay: Ex vivo electrophysiology: paired-pulse ratio (short-term plasticity), CA1 with Schaffer collateral stimulation; format: cell-based; conditions: 10 nM and 100 nM; interstimulus intervals 50-400 ms; vs vehicle 0.01% DMSO
Method: Response is Stratum radiatum of area CA1 of the hippocampus with Schaffer collateral stimulation. Statistical differences correspond to the ones observed between Compound 1 10 nM and Vehicle groups.
Statistical differences correspond to the ones observed between Compound 1 100 nM and Vehicle groups.
(§1) The effect of compound 1 to enhance mEPSPs may be dependent on the influx of extracellular calcium.

[2] = system: Sprague Dawley rat hippocampal slices; assay: Ex vivo electrophysiology: short-lasting long-term potentiation (S-LTP) at hippocampal CA1 synapses; format: cell-based; conditions: 10 nM; single 1-sec train of 100-Hz stimulation
Excerpt: Time-point 0 represents delivery of HFS. Slopes of fEPSP are normalized to baseline and plotted against time.
as §1

rats = assay: Freely behaving rodent model of long-term potentiation (LTP); format: in vivo, rat; conditions: 0.01 and 0.1 mg/kg IV
Method: Amplitudes of fEPSP are normalized to baseline and plotted against time.
A freely behaving rodent model of long-term potentiation (LTP), a frequently studied form of synaptic plasticity, was employed. LTP is a persistent increase in the strength of synaptic connections between neurons, and is a cellular mechanism widely considered to underlie the processes of learning and memory. At 0.01 and 0.1 mg/kg IV compound 1 increased LTP compared to vehicle controls (FIGS. 10-11).

[3] = system: adult subjects with major depressive disorder (MDD); assay: Phase 2 clinical trial in MDD: QIDS-SR Item #10 Concentration/Decision Making; format: in vivo, human; parameters: key to QIDS-SR Item #10 score, Median / QIDS-SR Item #10 score, Min / QIDS-SR Item #10 score, Max: QIDS-SR Item 10 scored 0 (no change) to 3 (cannot concentrate/decide); conditions: 20 mg/day; for QIDS-SR Item #10 Change from Baseline, Max / QIDS-SR Item #10 Change from Baseline, Mean (SD) / QIDS-SR Item #10 Change from Baseline, Median / QIDS-SR Item #10 Change from Baseline, Min / QIDS-SR Item #10 score, Max / QIDS-SR Item #10 score, Mean (SD) / QIDS-SR Item #10 score, Median / QIDS-SR Item #10 score, Min: mITT, Females
Method: (§2) A Phase 2, multicenter, double-blind, randomized, placebo-controlled study of the safety and efficacy of SP-624 in the treatment of adult subjects with major depressive disorder (MDD) as defined by the Diagnostic and Statistical Manual of Mental Disorders, Fifth Edition (DSM-5) was carried out. Following the successful completion of a Screening Phase, subjects were randomized to one of two treatment groups in a 1:1 ratio and received Compound 1 (SP-624) or placebo over a treatment period of four weeks (Treatment Group #1: SP-624 20 mg/day; Treatment Group #2: Placebo).
(§3) Prior to initiating the 4-week treatment period, subjects completed a Screening/Baseline period of up to 28 days, during which time all screening assessments were performed, and any current depression medications discontinued. All screening assessments were completed before discontinuing any current depression medications. Subjects returned for a Baseline Visit to complete efficacy and safety assessments. During the treatment period, subjects returned to the investigative site to complete efficacy and safety assessments at the end of Weeks 1, 2, 3, and 4. After the final dose of study drug, subjects completed a follow-up period of two weeks and returned at the end of Weeks 5 and 6. Subjects may be treated with anti-depressant medications according to physician recommendations after completion of the Week 5 Visit.
(§4) Each dose of Compound 1 was supplied as two capsules, each containing 10 mg of active pharmaceutical ingredient (API). Matching placebo capsules identical in shape and color to the active capsules were used.
The study included several measurements related to cognitive function. The first is the QIDS-SR) Item #10 Concentration/Decision Making. The answer scale is: 0—There is no change in my usual capacity to concentrate or make decisions; 1—I occasionally feel indecisive or find that my attention wanders; 2—Most of the time, I struggle to focus my attention or to make decisions; 3—I cannot concentrate well enough to read or cannot make even minor decisions.

[4] = system: adult subjects with major depressive disorder (MDD); assay: Phase 2 clinical trial in MDD: MADRS Item #6 Concentration Difficulties; format: in vivo, human; parameters: key to MADRS Item #6 Concentration Difficulty score, Median / MADRS Item #6 Concentration Difficulty score, Min / MADRS Item #6 Concentration Difficulty score, Max: 0 = no concentration difficulty, 6 = unable to read/converse; key to MADRS Item #6 Change from Baseline, Median / MADRS Item #6 Change from Baseline, Max: change from baseline on 0–6 MADRS item scale; conditions: for MADRS Item #6 Change from Baseline, Max / MADRS Item #6 Change from Baseline, Mean (SD) / MADRS Item #6 Change from Baseline, Median / MADRS Item #6 Change from Baseline, Min / MADRS Item #6 Concentration Difficulty score, Max / MADRS Item #6 Concentration Difficulty score, Mean (SD) / MADRS Item #6 Concentration Difficulty score, Median / MADRS Item #6 Concentration Difficulty score, Min / MADRS Item #6 Change from Baseline, LSM Difference (95% CI) SP-624 vs Placebo: mITT, Females; for MADRS Item #6 Change from Baseline, LSM Difference (95% CI) SP-624 vs Placebo: MMRM
Method: as §2, §3, §4
The third cognitive function measurement is MADRS Item #6 Concentration Difficulties (representing difficulties in collecting one's thoughts mounting to incapacitating lack of concentration, rated according to intensity, frequency, and degree of incapacity produced). The answer scale is: 0—No difficulties in concentration; 1—blank; 2—Occasional difficulties in collecting one's thoughts; 3—blank; 4—Difficulties in concentrating and sustaining thought which reduces ability to read or hold a conversation; 5—blank; 6—Unable to read or converse without great difficulty.

[5] = Week 5 (1-week after the last dose), 20 mg/day for four weeks

## COC1=CC(=O)C[C@@H](C)[C@]12Oc1c(Cl)c(-c3nnc(C)o3)cc(OC)c1C2=O [Compound 1, (2S,6′R)-7-Chloro-2′,4-dimethoxy-6′-methyl-6-(5-methyl-1,3,4-oxadiazol-2-yl)-3H-spiro[1-benzofuran-2,1′-cyclohex[2]ene]-3,4′-dione]
[1]
  short-term plasticity (paired-pulse ratio): enhanced short-term plasticity
[2]
  short-lasting long-term potentiation (S-LTP): tended to increase
rats
  LTP compared to vehicle controls: increased LTP
[3]; Week 2
  QIDS-SR Item #10 Change from Baseline, Max: 1
  QIDS-SR Item #10 Change from Baseline, Mean (SD): −0.3 (0.71)
  QIDS-SR Item #10 Change from Baseline, Median: 0.0
  QIDS-SR Item #10 Change from Baseline, Min: −3
  QIDS-SR Item #10 score, Max: 3
  QIDS-SR Item #10 score, Mean (SD): 1.5 (0.82)
  QIDS-SR Item #10 score, Median: 2.0
  QIDS-SR Item #10 score, Min: 0
[3]; Week 4
  QIDS-SR Item #10 Change from Baseline, Max: 1
  QIDS-SR Item #10 Change from Baseline, Mean (SD): −0.6 (0.80)
  QIDS-SR Item #10 Change from Baseline, Median: 0.0
  QIDS-SR Item #10 Change from Baseline, Min: −3
  QIDS-SR Item #10 score, Max: 3
  QIDS-SR Item #10 score, Mean (SD): 1.2 (0.86)
  QIDS-SR Item #10 score, Median: 1.0
  QIDS-SR Item #10 score, Min: 0
[3]; by week 4 of treatment
  QIDS-SR Item #10 Concentration/Decision Making, improvement in score vs placebo: greater improvement in score
[4]; Week 1, 20 mg/day
  MADRS Item #6 Change from Baseline, Max: 1
  MADRS Item #6 Change from Baseline, Mean (SD): −0.7 (1.27)
  MADRS Item #6 Change from Baseline, Median: 0
  MADRS Item #6 Change from Baseline, Min: −5
  MADRS Item #6 Concentration Difficulty score, Max: 6
  MADRS Item #6 Concentration Difficulty score, Mean (SD): 3.0 (1.48)
  MADRS Item #6 Concentration Difficulty score, Median: 4
  MADRS Item #6 Concentration Difficulty score, Min: 0
[4]; Week 1, 20 mg/day, P-value 0.339
  MADRS Item #6 Change from Baseline, LSM Difference (95% CI) SP-624 vs Placebo: −0.2 (−0.5, 0.2)
[4]; Week 2, 20 mg/day
  MADRS Item #6 Change from Baseline, Max: 3
  MADRS Item #6 Change from Baseline, Mean (SD): −0.7 (1.27)
  MADRS Item #6 Change from Baseline, Median: 0
  MADRS Item #6 Change from Baseline, Min: −4
  MADRS Item #6 Concentration Difficulty score, Max: 5
  MADRS Item #6 Concentration Difficulty score, Mean (SD): 3.0 (1.37)
  MADRS Item #6 Concentration Difficulty score, Median: 3
  MADRS Item #6 Concentration Difficulty score, Min: 0
[4]; Week 2, 20 mg/day, P-value 0.753
  MADRS Item #6 Change from Baseline, LSM Difference (95% CI) SP-624 vs Placebo: 0.1 (−0.3, 0.4)
[4]; Week 3, 20 mg/day
  MADRS Item #6 Change from Baseline, Max: 0
  MADRS Item #6 Change from Baseline, Mean (SD): −1.2 (1.40)
  MADRS Item #6 Change from Baseline, Median: −1
  MADRS Item #6 Change from Baseline, Min: −5
  MADRS Item #6 Concentration Difficulty score, Max: 4
  MADRS Item #6 Concentration Difficulty score, Mean (SD): 2.6 (1.58)
  MADRS Item #6 Concentration Difficulty score, Median: 3
  MADRS Item #6 Concentration Difficulty score, Min: 0
[4]; Week 3, 20 mg/day, P-value 0.214
  MADRS Item #6 Change from Baseline, LSM Difference (95% CI) SP-624 vs Placebo: −0.3 (−0.7, 0.2)
[4]; Week 4, 20 mg/day
  MADRS Item #6 Change from Baseline, Max: 1
  MADRS Item #6 Change from Baseline, Mean (SD): −1.2 (1.51)
  MADRS Item #6 Change from Baseline, Median: −1
  MADRS Item #6 Change from Baseline, Min: −4
  MADRS Item #6 Concentration Difficulty score, Max: 5
  MADRS Item #6 Concentration Difficulty score, Mean (SD): 2.5 (1.67)
  MADRS Item #6 Concentration Difficulty score, Median: 3
  MADRS Item #6 Concentration Difficulty score, Min: 0
[4]; Week 4, 20 mg/day, P-value 0.144
  MADRS Item #6 Change from Baseline, LSM Difference (95% CI) SP-624 vs Placebo: −0.3 (−0.8, 0.1)
[4]; [5]
  MADRS Item #6 Change from Baseline, Max: 1
  MADRS Item #6 Change from Baseline, Mean (SD): −1.3 (1.51)
  MADRS Item #6 Change from Baseline, Median: −1
  MADRS Item #6 Change from Baseline, Min: −5
  MADRS Item #6 Concentration Difficulty score, Max: 5
  MADRS Item #6 Concentration Difficulty score, Mean (SD): 2.4 (1.63)
  MADRS Item #6 Concentration Difficulty score, Median: 3
  MADRS Item #6 Concentration Difficulty score, Min: 0
[4]; Week 5 (1-week after the last dose), 20 mg/day for four weeks, P-value 0.007
  MADRS Item #6 Change from Baseline, LSM Difference (95% CI) SP-624 vs Placebo: −0.6 (−1.1, −0.2)
[4]; all measurement times through week 5, 20 mg/day
  MADRS Item #6 Concentration Difficulties, improvement in score vs placebo: greater improvement in score
